Data: ChEMBL document CHEMBL4130359, “Indazole-based ligands for estrogen-related receptor α as potential anti-diabetic agents” (Eur J Med Chem, 2017)

Tests used:
[1] = tested on: Rattus norvegicus; experiment: Toxicity in Zucker rat sub-chronic fa/fa prediabetic model assessed as body weight at 10 mg/kg, po qd for 29 days measured on day 29 post last dose (reference value: 533 +/- 10 g); type: organism-based; details: in vivo, 696 h
[2] = tested on: Rattus norvegicus; experiment: Toxicity in Zucker rat sub-chronic fa/fa prediabetic model assessed as change in body weight at 10 mg/kg, po qd for 29 days measured on day 1 to 29 during compound dosing (reference value: 140 +/- 7 g); type: organism-based; details: in vivo, 696 h
[3] = tested on: Rattus norvegicus; experiment: Toxicity in Zucker rat sub-chronic fa/fa prediabetic model assessed as food intake at 10 mg/kg, po qd for 29 days measured on day 1 to 29 during compound dosing (reference value: 969 +/- 18 g); type: organism-based; details: in vivo, 696 h
[4] = tested on: Rattus norvegicus; experiment: Toxicity in Zucker rat sub-chronic fa/fa prediabetic model assessed as epididymal white adipose tissue weight at 10 mg/kg, po qd for 31 days measured on day 32 (reference value: 13.9 +/- 0.6 g); type: organism-based; details: in vivo, 744 h
[5] = tested on: Rattus norvegicus; experiment: Toxicity in Zucker rat sub-chronic fa/fa prediabetic model assessed as brown adipose tissue weight at 10 mg/kg, po qd for 31 days measured on day 32 (reference value: 2.1 +/- 0.3 g); type: organism-based; details: in vivo, 744 h
[6] = tested on: Rattus norvegicus; experiment: Toxicity in Zucker rat sub-chronic fa/fa prediabetic model assessed as liver weight at 10 mg/kg, po qd for 31 days measured on day 32 (reference value: 28 +/- 1.6 g); type: organism-based; details: in vivo, 744 h
[7] = tested on: Rattus norvegicus; experiment: Toxicity in Zucker rat sub-chronic fa/fa prediabetic model assessed as heart weight at 10 mg/kg, po qd for 31 days measured on day 32 (reference value: 1.19 +/- 0.04 g); type: organism-based; details: in vivo, 744 h
[8] = tested on: Rattus norvegicus; experiment: Toxicity in Zucker rat sub-chronic fa/fa prediabetic model assessed as triglyceride level per gram liver at 10 mg/kg, po qd for 31 days measured on day 32 (reference value: 163.4 +/- 8.3 mg); type: organism-based; details: in vivo, 744 h
[9] = tested on: Rattus norvegicus; experiment: Toxicity in Zucker rat sub-chronic fa/fa prediabetic model assessed as insulin level per gram pancreas at 10 mg/kg, po qd for 31 days measured on day 32 (reference value: 55.2 +/- 5.5 ug); type: organism-based; details: in vivo, 744 h
[10] = tested on: Rattus norvegicus; experiment: Toxicity in Zucker rat sub-chronic fa/fa prediabetic model assessed as serum triglyceride level at 10 mg/kg, po qd for 31 days measured on day 32 (reference value: 1382 +/- 268 mg/dl); type: organism-based; details: in vivo, 744 h
[11] = tested on: Rattus norvegicus; experiment: Toxicity in Zucker rat sub-chronic fa/fa prediabetic model assessed as serum cholesterol level at 10 mg/kg, po qd for 31 days measured on day 32 (reference value: 295 +/- 91 mg/dl); type: organism-based; details: in vivo, 744 h
[12] = tested on: Rattus norvegicus; experiment: Toxicity in Zucker rat sub-chronic fa/fa prediabetic model assessed as serum ALT level at 10 mg/kg, po qd for 31 days measured on day 32 (reference value: 151 +/- 23 U/L); type: organism-based; details: in vivo, 744 h
[13] = tested on: Rattus norvegicus; experiment: Toxicity in Zucker rat sub-chronic fa/fa prediabetic model assessed as serum AST level at 10 mg/kg, po qd for 31 days measured on day 32 (reference value: 187 +/- 37 U/L); type: organism-based; details: in vivo, 744 h
[14] = tested on: Rattus norvegicus; experiment: Toxicity in Zucker rat sub-chronic fa/fa prediabetic model assessed as serum BUN level at 10 mg/kg, po qd for 31 days measured on day 32 (reference value: 28.3 +/- […]); type: organism-based; details: in vivo, 744 h
[15] = tested on: Rattus norvegicus; experiment: Toxicity in Zucker rat sub-chronic fa/fa prediabetic model assessed as serum creatinine level at 10 mg/kg, po qd for 31 days measured on day 32 (reference value: 0.71 +/- 0.07 mg/dl); type: organism-based; details: in vivo, 744 h
[16] = tested on: Rattus norvegicus; experiment: Toxicity in […] chronic ob/ob model assessed as body weight at 10 mg/kg, po qd for 28 days measured on day 28 post last dose (reference value: 47.3 +/- 1.06 g); type: organism-based; details: in vivo, 672 h
[17] = tested on: Rattus norvegicus; experiment: Toxicity in […] chronic ob/ob model assessed as change in body weight at 10 mg/kg, po qd for 28 days measured on day 1 to 28 during compound dosing (reference value: 9.9 +/- 1.27 g); type: organism-based; details: in vivo, 672 h
[18] = tested on: Rattus norvegicus; experiment: Toxicity in […] chronic ob/ob model assessed as food intake at 10 mg/kg, po qd for 28 days measured on day 1 to 28 during compound dosing (reference value: 170.6 +/- 3 g); type: organism-based; details: in vivo, 672 h
[19] = tested on: Rattus norvegicus; experiment: Toxicity in […] model assessed as liver weight at 10 mg/kg, po qd for 31 days measured on day 32 (reference value: 2.77 +/- 0.16 g); type: organism-based; details: in vivo, 744 h
[20] = tested on: Rattus norvegicus; experiment: Toxicity in […] chronic ob/ob model assessed as epididymal white adipose tissue weight at 10 mg/kg, po qd for 31 days measured on day 32 (reference value: 3.92 +/- 0.14 g); type: organism-based; details: in vivo, 744 h
[21] = tested on: Rattus norvegicus; experiment: Toxicity in […] chronic ob/ob model assessed as brown adipose tissue weight at 10 mg/kg, po qd for 31 days measured on day 32 (reference value: 0.59 +/- 0.05 g); type: organism-based; details: in vivo, 744 h
[22] = tested on: Rattus norvegicus; experiment: Toxicity in […] chronic ob/ob model assessed as serum triglyceride level at 10 mg/kg, po qd for 31 days measured on day 32 (reference value: 329 +/- 36 mg/dl); type: organism-based; details: in vivo, 744 h
[23] = tested on: Rattus norvegicus; experiment: Toxicity in […] model assessed as serum cholesterol level at 10 mg/kg, po qd for 31 days measured on day 32 (reference value: 195 +/- 5.5 mg/dl); type: organism-based; details: in vivo, 744 h
[24] = tested on: Rattus norvegicus; experiment: Toxicity in […] model assessed as serum ALT level at 10 mg/kg, po qd for 31 days measured on day 32 (reference value: 127 +/- 9 U/L); type: organism-based; details: in vivo, 744 h
[25] = tested on: Rattus norvegicus; experiment: Toxicity in […] model assessed as serum AST level at 10 mg/kg, po qd for 31 days measured on day 32 (reference value: 180 +/- 26 U/L); type: organism-based; details: in vivo, 744 h
[26] = tested on: Rattus norvegicus; experiment: Toxicity in […] model assessed as serum BUN level at 10 mg/kg, po qd for 31 days measured on day 32 (reference value: 28.3 +/- […]); type: organism-based; details: in vivo, 744 h
[27] = tested on: Rattus norvegicus; experiment: Toxicity in […] model assessed as serum creatinine level at 10 mg/kg, po qd for 31 days measured on day 32 (reference value: 0.55 +/- 0.018 mg/dl); type: organism-based; details: in vivo, 744 h
[28] = tested on: Rattus norvegicus; experiment: Antidiabetic activity in […] chronic ob/ob model assessed as increase in plasma adiponectin level at 10 mg/kg, po qd for 31 days measured on day 32 by ELISA relative to control; type: functional

CN(CCOc1ccc(CC2SC(=O)NC2=O)cc1)c1ccccn1 (stereo not drawn) [ROSIGLITAZONE]
Activity [1]: 617 g
Activity [2]: 213 g
Activity [3]: 1248 g
Activity [4]: 22.7 g
Activity [5]: 7.6 g
Activity [6]: 20.9 g
Activity [7]: 1.37 g
Activity [8]: 102.5 mg
Activity [9]: 90.7 µg
Activity [10]: 195 mg/dL
Activity [11]: 141 mg/dL
Activity [12]: 136 U/L
Activity [13]: 147 U/L
Activity [14]: 27.2 mg/dL
Activity [15]: 0.54 mg/dL
Activity [16]: 50.5 g
Activity [17]: 13 g
Activity [18]: 157.3 g
Activity [19]: 3.93 g
Activity [20]: 3.32 g
Activity [21]: 1.26 g
Activity [22]: 77 mg/dL
Activity [23]: 184 mg/dL
Activity [24]: 366 U/L
Activity [25]: 364 U/L
Activity [26]: 33.1 mg/dL
Activity [27]: 0.41 mg/dL
fold change (FC) [28]: 2.6
